Results taken from patent US7012086B1, “Treatment of retrovirus induced derangements with niacin compounds” (The Foundation For Innovative Therapies, Inc., priority 2000, dated 2006).

Experiments:
[1] = system: HIV infected persons; test: Clinical trial of niacin (nicotinamide) in HIV infected persons: plasma amino acids by HPLC, tolerability; type: in vivo, human
Description: Four HIV infected persons participated in a trial of niacin in the form of nicotinamide. The participants were at various stages of their HIV infection as judged by their CD4 counts which ranged from 0 to 620 [see table 1]. […] Two of the participants had known co-infections infections typical of HIV infected persons. Each participant took 3 grams of nicotinamide per day for 2 months. […] Each participant's plasma tryptophan was measured prior to treatment and at the end of treatment [see table 3]. […] All amino acid concentrations were measured by High Performance Liquid Chromotography [HPLC].

[2] = system: HIV infected persons; details: cited from earlier work

SMILES: NC(=O)c1cccnc1 [nicotinamide]
- adverse side effects of treatment ([1]; 3 grams of nicotinamide per day for 2 months, four HIV infected persons): not associated with any adverse side effects
- average increase of plasma tryptophan of all participants ([1]; 3 grams of nicotinamide per day orally for 2 months, four HIV infected persons, before vs end of treatment, p=0.0112 (paired t-test)): 43.9%

SMILES: Cc1cn([C@H]2C[C@H](N=[N+]=[N-])[C@@H](CO)O2)c(=O)[nH]c1=O [Zidovudine, zidovudine]
- effect on plasma tryptophan in HIV infected persons ([2]; HIV infected persons): replete plasma tryptophan
- side effects ([2]; in vivo): headache, nausea, and bone marrow suppression

SMILES: O=C(O)c1cccnc1 [Niacin]
- tryptophan status (plasma tryptophan), in words ([1]; four patients across the range of baseline CD4 count, antiviral medication and co-infections): improve tryptophan status in all four patients
